This assay deals with PMA-induced release of IL-6R from U-937 cells. The assay can be described thus: ELISA-based IL-6R release assay, PMA-stimulated U-937 cells. It counts as cell-based. The conditions noted are these: Homo sapiens, U-937, 1 h, Batimastat 10 μM, PMA 62.5 ng/ml. On the procedure:
Complementary to Example 26 described above, ELISA-based IL-6R release assays were performed to verify the inhibitory effects of the antibodies of the present disclosure on PMA-induced release of endogenous IL-6R from human U-937 cells.
In brief, on day 1, Nunc black MaxiSorp® 96-well plates (Thermo Fisher Scientific, USA) were coated overnight with 100 μl per well of mouse anti-human IL-6R capture antibody (provided as part of the DuoSet ELISA kit) at 2 μg/ml TBS at 4° C. On day 2, the capture antibody solution was removed and MaxiSorp® plates were blocked with 300 μl per well of TBS, 1% BSA at room temperature for 1-2 hours. […] Using an infinite M1000 (Tecan Group, Switzerland) microplate reader, the fluorescence of each well was collected at an excitation wavelength of 435 nm and an emission wavelength of 555 nm. […]

SMILES strings stand for the structures.

On to `CNC(=O)[C@H](Cc1ccccc1)NC(=O)[C@H](CC(C)C)[C@H](CSc1cccs1)C(=O)NO` [Batimastat], for which the inhibition at 10 µM reads like this: (murine (m) and chimeric (ch) antibodies 3 μg/ml) 91.6%; (recombinant murine antibodies 1 μg/ml) 86.6%.

These data come from patent US20240174744A1, “METHODS OF TREATMENT USING PROTEIN BINDERS TO IRHOM2 EPITOPES” (SCIRHOM GMBH, priority 2021, published 2024).
